Data published in patent US9556132B2, “Tetrazole derivatives and their use as potassium channel modulators” (SANIONA A/S, priority 2012, dated 2017).

molecular target: human IK (Homo sapiens (Human), UniProt O15554); test: Inhibition of IK channels expressed in HEK293 cells, thallium (I) sensitive FLIPR assay; type: cell-based; conditions: HEK293 cells over-expressing human IK; Tl+-sensitive BTC fluorescence (FLIPR); inhibition of activity induced by Ca2+-ionophore A23187
Description: Following experiment determines the ability of a test compound to inhibit the activity of IK channels heterologously expressed in human HEK293 cells, and was used as the primary screen. The ability is determined as per cent inhibition of the activity induced by addition of the Ca^2+-ionophore A23187 (considered a maximum response). The activity is determined using a standard thallium (I) sensitive assay, e.g. using a fluorometric method in a Fluorescent Image Plate Reader (FLIPR) as described below in more detail.
Full concentration/response curves are generated and IC50 values are calculated based on the degree of inhibition of the maximum response. IC50 values (Inhibitory Concentration) represent the concentration of the test substance at which 50% of the maximum channel activity is inhibited.
Human HEK293 cells over-expressing human IK are grown in culture medium (DMEM supplemented with 10% foetal bovine serum), in polystyrene culture flasks ([…]) in a humidified atmosphere of 5% CO2 in air, at 37° C. Cell confluence should be 80-90% on day of plating. Cells are rinsed with 4 mL of PBS (phosphate buffered saline) and incubated 2 min with 1 mL of Trypsin-EDTA. After addition of 25 mL of culture medium cells are re-suspended by trituration with a 25 mL pipette.
The cells are seeded at a density of ˜3×10^6 cells/mL (25 μL/well) in black-walled, clear bottom, 384-well plates pre-treated with 0.01 g/L poly-D-lysin (20 μL/well for ≧30 min). Plated cells were allowed to proliferate for 24 h before loading with dye.
BTC-AM ([…], Invitrogen) is added 25.5 μl DMSO. The BTC-AM stock solution (2 mM) is diluted to a final concentration of 2 μM in […] assay buffer (in mM: 140 Na^+-gluconate, 2.5 K^+-gluconate, 6 Ca2^+-gluconate, 1 Mg^2+ gluconate, 5 glucose, 10 HEPES, pH 7.3) containing 2 μM ouabain, 2 mM amaranth and 1 mM tartrazine.
The culture medium is aspirated from the wells, and 25 μl of the BTC-AM loading solution are added to each well. The cells are incubated at 37° C. for 60 min.
After the loading period, the Tl^+-sensitive BTC fluorescence signal is measured over time using a FLIPR.
• Temperature: Room temp. • First addition: 12 μl test or control compound after 15 sec at a rate of 30 μL/sec and starting height of 20 μL • Second addition: 12 μL stimulus buffer (Cl^− free assay buffer supplemented with 1 mM Tl2SO4, 5 μM A23187 as well as the quenchers amaranth (2 mM) and tartrazine (1 mM)) is added after an additional 3 minutes at a rate of 30 μL/sec and starting height of 30 μL • Reading intervals: First sequence—3 sec×5, 2 sec×24 and 5 sec×25 • Second sequence—1 sec×5, 2 sec×24 and 5 sec×36
Addition plates (compound plate and stimulus plate) are placed in positions 2 and 3, respectively. Cell plates are placed in position 1 and run using the “IK blocker (EtOH wash, two additions)” program. FLIPR will then take the appropriate measurements in accordance with the interval settings above. Fluorescence obtained after stimulation is corrected for the mean basal fluorescence (in Cl^− free assay buffer).
Full concentration/response curves are generated and IC50 values (“Inhibitory Concentration”, i.e. the concentration of the test substance at which 50% of the maximum channel activity is inhibited) are calculated. The responses are calculated based on peak values.

IC50	SMILES
5900 nM	Oc1ccccc1-c1ccccc1-c1nnnn1-c1ccccc1F [Compound 2, 2-{2-[1-(2-Fluorophenyl)-1H-1,2,3,4-tetrazol-5-yl]phenyl}phenol]
37 nM	CCOc1ccccc1-c1ccccc1-c1nnnn1-c1ccccc1F [Compound 3, 5-[2-(2-Ethoxyphenyl)phenyl]-1-(2-fluorophenyl)-1H-1,2,3,4-tetrazole]
30 nM	COCCOc1ccccc1-c1ccccc1-c1nnnn1-c1ccccc1F [Compound 4, 1-(2-Fluorophenyl)-5-{2-[2-(2-methoxyethoxyl)phenyl]phenyl}-1H-1,2,3,4-tetrazole]
290 nM	Fc1ccccc1-n1nnnc1-c1ccccc1-c1ccccc1OC(F)F [Compound 5, 5-{2-[2-(Difluoromethoxy)phenyl]phenyl}-1-(2-fluorophenyl)-1H-1,2,3,4-tetrazole]
710 nM	Fc1ccccc1-n1nnnc1-c1ccccc1-c1ccccc1OCC1CC1 [Compound 6, 5-{2-[2-(Cyclopropylmethoxy)phenyl]phenyl}-1-(2-fluorophenyl)-1H-1,2,3,4-tetrazole]
16 nM	N#CCOc1ccccc1-c1ccccc1-c1nnnn1-c1ccccc1F [Compound 7, 2-(2-{2-[1-(2-Fluorophenyl)-1H-1,2,3,4-tetrazol-5-yl]phenyl}phenoxy)acetonitrile]
590 nM	COC(=O)COc1ccccc1-c1ccccc1-c1nnnn1-c1ccccc1F [Compound 8, Methyl 2-(2-{2-[1-(2-fluorophenyl)-1H-1,2,3,4-tetrazol-5-yl]phenyl}phenoxy)acetate]
770 nM	CC(C)Oc1ccccc1-c1ccccc1-c1nnnn1-c1ccccc1F [Compound 9, 1-(2-Fluorophenyl)-5-{2-[2-(propan-2-yloxy)phenyl]phenyl}-1H-1,2,3,4-tetrazole]
300 nM	FCOc1ccccc1-c1ccccc1-c1nnnn1-c1ccccc1F [Compound 12, 5-{2-[2-(Fluoromethoxy)phenyl]phenyl}-1-(2-fluorophenyl)-1H-1,2,3,4-tetrazole]
110 nM	COc1ccccc1-c1ccccc1-c1nnnn1-c1ccccc1F [Compound 13, 1-(2-Fluorophenyl)-5-[2-(2-methoxyphenyl)phenyl]-1H-1,2,3,4-tetrazole]
460 nM	CSc1ccccc1-c1ccccc1-c1nnnn1-c1ccccc1F [Compound 14, 1-(2-Fluorophenyl)-5-{2-[2-(methylthio)phenyl]phenyl}-1H-1,2,3,4-tetrazole]
1700 nM	Fc1ccccc1-n1nnnc1-c1ccccc1-c1ccccc1OC(F)(F)F [Compound 15, 1-(2-Fluorophenyl)-5-{2-[2-(trifluoromethoxy)phenyl]phenyl}-1H-1,2,3,4-tetrazole]
190 nM	COCOc1ccccc1-c1ccccc1-c1nnnn1-c1ccccc1F [Compound 16, 1-(2-Fluorophenyl)-5-{2-[2-(methoxymethoxy)phenyl]phenyl}-1H-1,2,3,4-tetrazole]
1000 nM	NC(=O)COc1ccccc1-c1ccccc1-c1nnnn1-c1ccccc1F [Compound 17, 2-(2-{2-[1-(2-Fluorophenyl)-1H-1,2,3,4-tetrazol-5-yl]phenyl}phenoxy)acetamide]
510 nM	Cc1ccccc1-c1ccccc1-c1nnnn1-c1ccccc1F [Compound 19, 1-(2-Fluorophenyl)-5-[2-(2-methylphenyl)phenyl]-1H-1,2,3,4-tetrazole]
290 nM	CCc1ccccc1-c1ccccc1-c1nnnn1-c1ccccc1F [Compound 20, 5-[2-(2-Ethylphenyl)phenyl]-1-(2-fluorophenyl)-1H-1,2,3,4-tetrazole]
550 nM	O=Cc1ccccc1-c1ccccc1-c1nnnn1-c1ccccc1F [Compound 21, 2-{2-[1-(2-Fluorophenyl)-1H-1,2,3,4-tetrazol-5-yl]phenyl}benzaldehyde]
1700 nM	Fc1ccccc1-n1nnnc1-c1ccccc1-c1ccccc1C(F)(F)F [Compound 22, 1-(2-Fluorophenyl)-5-{2-[2-(trifluoromethyl)phenyl]phenyl}-1H-1,2,3,4-tetrazole]

IC50	SMILES
550 nM	Fc1ccccc1-n1nnnc1-c1ccccc1-c1ccccc1Br [Compound 23, 5-[2-(2-Bromophenyl)phenyl]-1-(2-fluorophenyl)-1H-1,2,3,4-tetrazole]
360 nM	Fc1ccccc1-n1nnnc1-c1ccccc1-c1ccccc1Cl [Compound 24, 5-[2-(2-Chlorophenyl)phenyl]-1-(2-fluorophenyl)-1H-1,2,3,4-tetrazole]
700 nM	Fc1ccccc1-c1ccccc1-c1nnnn1-c1ccccc1F [Compound 25, 1-(2-Fluorophenyl)-5-[2-(2-fluorophenyl)phenyl]-1H-1,2,3,4-tetrazole]
820 nM	CN(C)c1ccccc1-c1ccccc1-c1nnnn1-c1ccccc1F [Compound 26, 2-{2-[1-(2-Fluorophenyl)-1H-1,2,3,4-tetrazol-5-yl]phenyl}-N,N-dimethylaniline]
900 nM	Nc1ccccc1-c1ccccc1-c1nnnn1-c1ccccc1F [Compound 27, 2-{2-[1-(2-Fluorophenyl)-1H-1,2,3,4-tetrazol-5-yl]phenyl}aniline]
770 nM	OCc1ccccc1-c1ccccc1-c1nnnn1-c1ccccc1F [Compound 28, (2-{2-[1-(2-Fluorophenyl)-1H-1,2,3,4-tetrazol-5-yl]phenyl}phenyl)methanol]
58 nM	COCc1ccccc1-c1ccccc1-c1nnnn1-c1ccccc1F [Compound 29, 1-(2-Fluorophenyl)-5-{2-[2-(methoxymethyl)phenyl]phenyl}-1H-1,2,3,4-tetrazole]
57 nM	O/N=C/c1ccccc1-c1ccccc1-c1nnnn1-c1ccccc1F [Compound 30, (E)-N-[(2-{2-[1-(2-Fluorophenyl)-1H-1,2,3,4-tetrazol-5-yl]phenyl}phenyl)methylidene]hydroxylamine]
110 nM	N#Cc1ccccc1-c1ccccc1-c1nnnn1-c1ccccc1F [Compound 31, 2-{2-[1-(2-Fluorophenyl)-1H-1,2,3,4-tetrazol-5-yl]phenyl}benzonitrile]
870 nM	Fc1ccccc1-n1nnnc1-c1ccccc1-c1ccccc1C(F)F [Compound 32, 5-{2-[2-(Difluoromethyl)phenyl]phenyl}-1-(2-fluorophenyl)-1H-1,2,3,4-tetrazole]
17 nM	FCc1ccccc1-c1ccccc1-c1nnnn1-c1ccccc1F [Compound 33, 5-{2-[2-(Fluoromethyl)phenyl]phenyl}-1-(2-fluorophenyl)-1H-1,2,3,4-tetrazole]
800 nM	Fc1ccccc1-n1nnnc1-c1ccccc1-c1ccccc1 [Compound 40, 1-(2-Fluorophenyl)-5-(2-phenylphenyl)-1H-1,2,3,4-tetrazole]
1000 nM	Fc1ccccc1-c1ccccc1-c1nnnn1-c1ccccc1Cl [Compound 48, 1-(2-Chlorophenyl)-5-[2-(2-fluorophenyl)phenyl]-1H-1,2,3,4-tetrazole]
540 nM	COc1ccccc1-c1ccccc1-c1nnnn1-c1ccccc1Cl [Compound 49, 1-(2-Chlorophenyl)-5-[2-(2-methoxyphenyl)phenyl]-1H-1,2,3,4-tetrazole]
1200 nM	COc1ccccc1-c1ccccc1-c1nnnn1-c1ccccc1OC [Compound 51, 1-(2-Methoxyphenyl)-5-[2-(2-methoxyphenyl)phenyl]-1H-1,2,3,4-tetrazole]
1200 nM	COc1ccccc1-c1ccccc1-c1nnnn1-c1ccccc1O [Compound 53, 2-{5-[2-(2-Methoxyphenyl)phenyl]-1H-1,2,3,4-tetrazol-1-yl}phenol]
780 nM	COc1ccccc1-n1nnnc1-c1ccccc1-c1ccccc1F [Compound 54, 5-[2-(2-Fluorophenyl)phenyl]-1-(2-methoxyphenyl)-1H-1,2,3,4-tetrazole]
64 nM	COc1ccccc1-c1ccccc1-c1nnnn1-c1ccccc1C#N [Compound 56, 2-{5-[2-(2-Methoxyphenyl)phenyl]-1H-1,2,3,4-tetrazol-1-yl}benzonitrile]
